The assay has as its target T1, rat mGluR5 (Rattus norvegicus, UniProt P31424).
T1 construct: expressed in transfected cells; host or cells: human embryonic kidney (HEK) cells
Description: potentiation of mGluR5 response to glutamate, Ca2+ fluorescence (FDSS) in HEK cells transfected with rat mGluR5. The class given is cell-based. Particulars: for Emax: HEK293, maximum extent of potentiation, normalized to maximal response to glutamate, read-out: % Glu Max; for EC50: read-out: EC50. The protocol: Human embryonic kidney (HEK) cells transfected with rat mGluR5 were plated in clear bottom assay plates for assay in a Functional Drug Screening System (FDSS). The cells were loaded with a Ca^2+-sensitive fluorescent dye (e.g., Fluo-4), and the plates were washed and placed in the FDSS instrument. After establishment of a fluorescence baseline for twelve seconds, the compounds of the present invention were added to the cells, and the response in cells was measured. Five minutes later, an mGluR5 agonist (e.g., glutamate, 3,5-dihydroxyphenylglycine, or quisqualate) was added to the cells, and the response of the cells was measured. Potentiation of the agonist response of mGluR5 by the compounds in the present invention was observed as an increase in response to non-maximal concentrations of agonist (here, glutamate) in the presence of compound compared to the response to agonist in the absence of compound.
The above described assay operated in two modes. In the first mode, a range of concentrations of the present compounds were added to cells, followed by a single fixed concentration of agonist. If a compound acted as a potentiator, an EC50 value for potentiation and a maximum extent of potentiation by the compound at this concentration of agonist was determined by non-linear curve fitting. In the second mode, several fixed concentrations of the present compounds were added to various wells on a plate, followed by a range of concentrations of agonist for each concentration of present compound; the EC50 values for the agonist at each concentration of compound were determined by non-linear curve fitting. A decrease in the EC50 value of the agonist with increasing concentrations of the present compounds (a leftward shift of the agonist concentration-response curve) is an indication of the degree of mGluR5 potentiation at a given concentration of the present compound. An increase in the EC50 value of the agonist with increasing concentrations of the present compounds (a rightward shift of the agonist concentration-response curve) is an indication of the degree of mGluR5 antagonism at a given concentration of the present compound. The second mode also indicates whether the present compounds also affect the maximum response to mGluR5 to agonists.
Human embryonic kidney (HEK) cells transfected with rat mGluR5 were plated in clear-bottomed, poly-D-lysine-coated assay plates in glutamate-glutamine-free medium growth and incubated overnight at 37° C. in 5% CO2. The following day, cells were loaded with 2 μM calcium indicator dye, fluo-4 AM, for 1 h at 37° C. Dye was removed and replaced with assay buffer containing 1× Hanks balanced salt solution (Invitrogen, Carlsbad, Calif.), 20 mM HEPES, and 2.5 mM probenecid, pH 7.4. Cell plates were then loaded into the Functional Drug Screening System 6000 (FDSS 6000, Hamamatsu, Japan). After establishment of a fluorescence baseline for twelve seconds, the compounds of the present invention were added to the cells, and the response in cells was measured. Five minutes later, an mGluR5 agonist (e.g., glutamate, 3,5-dihydroxyphenylglycine, or quisqualate) was added to the cells, and the response of the cells was measured during a 1 minute incubation with agonists. Typically, the effect of test compounds of the present invention was on an EC20 concentration of glutamate was measured. All test compounds were dissolved and diluted in 100% DMSO and then serially diluted into assay buffer for a 2.5× stock in 0.25% DMSO; stock compounds were then added to the assay for a final DMSO concentration of 0.1%. Calcium fluorescence measures were recorded as fold over basal fluorescence; raw data was then normalized to the maximal response to agonist. Potentiation of the agonist response of mGluR5 by the compounds in the present invention was observed as an increase in response to non-maximal concentrations of agonist (here, glutamate) in the presence of compound compared to the response to agonist in the absence of compound. […]

Setting [1] is: Table 1, EC50 for potentiating the mGluR5 receptor, unit inferred.
Where [2] appears, read: potentiation of glutamate response, HEK cells transfected with rat mGluR5, SAR tables.

The structures appear in SMILES notation. Read-outs that look alike come from different tables or passages of the source.

T1 sequence (P31424 21-1203): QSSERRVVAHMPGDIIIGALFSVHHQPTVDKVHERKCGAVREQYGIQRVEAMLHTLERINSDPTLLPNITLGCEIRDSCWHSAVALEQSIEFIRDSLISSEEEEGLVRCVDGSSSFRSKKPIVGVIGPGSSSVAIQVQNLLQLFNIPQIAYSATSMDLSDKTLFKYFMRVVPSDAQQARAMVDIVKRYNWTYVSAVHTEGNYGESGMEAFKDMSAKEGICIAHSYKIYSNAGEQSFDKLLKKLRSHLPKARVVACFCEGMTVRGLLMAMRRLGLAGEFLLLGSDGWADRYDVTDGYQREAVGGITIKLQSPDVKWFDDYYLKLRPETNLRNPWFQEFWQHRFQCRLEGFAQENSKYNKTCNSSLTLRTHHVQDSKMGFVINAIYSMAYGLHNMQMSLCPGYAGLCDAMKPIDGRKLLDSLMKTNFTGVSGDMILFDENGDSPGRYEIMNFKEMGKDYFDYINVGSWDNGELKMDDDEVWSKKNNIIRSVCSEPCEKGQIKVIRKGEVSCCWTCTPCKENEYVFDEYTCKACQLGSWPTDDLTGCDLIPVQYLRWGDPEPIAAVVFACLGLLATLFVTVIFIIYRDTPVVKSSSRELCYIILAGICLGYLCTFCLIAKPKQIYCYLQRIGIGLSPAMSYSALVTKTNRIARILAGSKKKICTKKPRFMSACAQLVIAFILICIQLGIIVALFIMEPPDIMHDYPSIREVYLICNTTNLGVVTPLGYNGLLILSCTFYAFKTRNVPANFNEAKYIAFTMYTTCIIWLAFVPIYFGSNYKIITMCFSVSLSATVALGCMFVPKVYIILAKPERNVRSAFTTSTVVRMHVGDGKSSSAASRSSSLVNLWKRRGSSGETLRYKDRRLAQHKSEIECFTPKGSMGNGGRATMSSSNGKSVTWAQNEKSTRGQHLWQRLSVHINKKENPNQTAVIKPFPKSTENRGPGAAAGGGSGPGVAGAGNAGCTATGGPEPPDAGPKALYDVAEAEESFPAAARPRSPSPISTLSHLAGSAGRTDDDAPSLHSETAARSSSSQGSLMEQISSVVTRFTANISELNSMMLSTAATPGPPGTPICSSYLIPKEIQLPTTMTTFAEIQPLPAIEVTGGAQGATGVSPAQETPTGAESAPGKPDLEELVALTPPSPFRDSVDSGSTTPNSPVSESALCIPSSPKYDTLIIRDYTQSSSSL

Consider `O=C(c1ccc(C#Cc2ccccc2F)cc1)N1CCC(CO)CC1` [Compound 20e, (4-((2-fluorophenyl)ethynyl)phenyl)(4-(hydroxymethyl)piperidin-1-yl)methanone], for which the Emax (SAR tables) turned out to be 88%. In addition, the EC50 (in general, the concentration giving half of the maximal effect) under setting [1] turned out to be 23.6 nM and the EC50 under setting [2] stood at 20.6 nM. For `O=C(c1ccc(C#Cc2cccc(F)c2)cc1)N1CCC(CO)CC1` [Compound 20f, (4-((3-fluorophenyl)ethynyl)phenyl)(4-(hydroxymethyl)piperidin-1-yl)methanone] the same measures were 86%, 11.9 nM and 11.9 nM. Turning to `O=C(c1ccc(C#Cc2ccc(F)cc2)cc1)N1CCC(CO)CC1` [Compound 20g, (4-((4-fluorophenyl)ethynyl)phenyl)(4-(hydroxymethyl)piperidin-1-yl)methanone], the Emax (SAR tables) is 95%. For the same molecule, the EC50 reads like this: under setting [1], 26.1 nM; under setting [2], 24.7 nM. For `O=C(c1ccc(C#Cc2ccc(F)c(F)c2)cc1)N1CCC(CO)CC1` [Compound 20h, (4-((3,4-difluorophenyl)ethynyl)phenyl)(4-(hydroxymethyl)piperidin-1-yl)methanone] the same measures were 104%, 81.7 nM and 76.3 nM.

`O=C(c1ccc(C#Cc2ccccc2F)cc1)N1CCOCC1` [Compound 20i, (4-((2-fluorophenyl)ethynyl)phenyl)(morpholino)methanone]: the Emax (SAR tables) was determined as 105%. The EC50 under setting [1] amounted to 12 nM and the EC50 under setting [2] stood at 12 nM. Consider `O=C(c1ccc(C#Cc2cccc(F)c2)cc1)N1CCOCC1` [Compound 20j, (4-((3-fluorophenyl)ethynyl)phenyl)(morpholino)methanone], for which, under “SAR tables”, the Emax stood at 112%. The half-maximal effective concentration (EC50) is 5.32 nM under setting [1] and 5.3 nM under setting [2]. In the case of `O=C(c1ccc(C#Cc2ccc(F)cc2)cc1)N1CCOCC1` [Compound 20k, (4-((4-fluorophenyl)ethynyl)phenyl)(morpholino)methanone], where the note is “SAR tables”, the Emax is 107%. Besides, the EC50 reads like this: under setting [1], 24.7 nM; under setting [2], 23.6 nM. The like results for `O=C(c1ccc(C#Cc2ccc(F)c(F)c2)cc1)N1CCOCC1` [Compound 20l, (4-((3,4-difluorophenyl)ethynyl)phenyl)(morpholino)methanone] were, in that order, 114%, 35.1 nM and 33.5 nM.

`O=C(c1ccc(C#Cc2ccccc2F)cc1)N1CC(O)C1` [Compound 20m, (4-((2-fluorophenyl)ethynyl)phenyl)(3-hydroxyazetidin-1-yl)methanone]: the Emax (SAR tables) was found to be 98%. For the same molecule, the EC50 is 187 nM under setting [1] and 166 nM under setting [2].

As for `O=C(c1ccc(C#Cc2cccc(F)c2)cc1)N1CC(O)C1` [Compound 20n, (4-((3-fluorophenyl)ethynyl)phenyl)(3-hydroxyazetidin-1-yl)methanone], the Emax (SAR tables) turned out to be 104%. Also, the EC50 runs as follows: under setting [1], 73 nM; under setting [2], 59.5 nM. For the molecule `O=C(c1ccc(C#Cc2ccc(F)cc2)cc1)N1CC(O)C1` [Compound 20o, (4-((4-fluorophenyl)ethynyl)phenyl)(3-hydroxyazetidin-1-yl)methanone], the Emax (SAR tables) is 103%. Also, the EC50 under setting [1] was 162 nM and the EC50 under setting [2] came out at 155 nM. For `O=C(c1ccc(C#Cc2ccc(F)c(F)c2)cc1)N1CC(O)C1` [Compound 20p, (4-((3,4-difluorophenyl)ethynyl)phenyl)(3-hydroxyazetidin-1-yl)methanone] the same measures were 88%, 387 nM and 314 nM. Turning to `O=C(NC1CCc2ccccc21)c1ccc(C#Cc2ccccc2)cc1` (stereo not drawn) [N-(2,3-dihydro-1H-inden-1-yl)-4-(phenylethynyl)benzamide], the EC50 under setting [1] was 146 nM. With `O=C(NC1Cc2ccccc2C1)c1ccc(C#Cc2ccccc2)cc1` [N-(2,3-dihydro-1H-inden-2-yl)-4-(phenylethynyl)benzamide], under setting [1], the EC50 came to 159 nM. Still for that read-out and setting: under `CN1CCCC1CCNC(=O)c1ccc(C#Cc2ccccc2)cc1` (stereo not drawn) [N-(2-(1-methylpyrrolidin-2-yl)ethyl)-4-(phenylethynyl)benzamide] stands 3530 nM; under `CN(C)CCNC(=O)c1ccc(C#Cc2ccccc2)cc1` [N-(2-(dimethylamino)ethyl)-4-(phenylethynyl)benzamide], 2990 nM.

In the case of `O=C(NCCc1ccccc1Cl)c1ccc(C#Cc2ccccc2)cc1` [N-(2-chlorophenethyl)-4-(phenylethynyl)benzamide], the EC50 under setting [1] was 135 nM. Same read-out and setting: the value for `O=C(NCCC1=CCCCC1)c1ccc(C#Cc2ccccc2)cc1` [N-(2-cyclohexenylethyl)-4-(phenylethynyl)benzamide] was 75.3 nM.

On to `O=C(NCCN1CCOCC1)c1ccc(C#Cc2ccccc2)cc1` [N-(2-morpholinoethyl)-4-(phenylethynyl)benzamide], for which the half-maximal effective concentration (EC50) under setting [1] is 137 nM. On the same count and under the same terms, under `CC(C)(C)CCNC(=O)c1ccc(-c2nc(-c3ccccc3)no2)cc1` [N-(3,3-dimethylbutyl)-4-(3-phenyl-1,2,4-oxadiazol-5-yl)benzamide] stands 1160 nM; under `CC(C)(C)CCNC(=O)c1ccc(C#Cc2ccccc2)cc1` [N-(3,3-dimethylbutyl)-4-(phenylethynyl)benzamide], 19.4 nM; under `O=C(NCCc1cccc(Cl)c1)c1ccc(C#Cc2ccccc2)cc1` [N-(3-chlorophenethyl)-4-(phenylethynyl)benzamide], 206 nM.

Regarding `O=C(NCCCO)c1ccc(C#Cc2ccccc2)cc1` [N-(3-hydroxypropyl)-4-(phenylethynyl)benzamide], under setting [1], the EC50 is 86.2 nM. For the molecule `O=C(NCCCN1CCOCC1)c1ccc(C#Cc2ccccc2)cc1` [N-(3-morpholinopropyl)-4-(phenylethynyl)benzamide], the EC50 under setting [1] is 1230 nM. The same measure, in the same setting: under `O=C(NCCc1ccc(Br)cc1)c1ccc(C#Cc2ccccc2)cc1` [N-(4-bromophenethyl)-4-(phenylethynyl)benzamide] stands 237 nM; under `O=C(NCCc1ccc(Cl)cc1)c1ccc(C#Cc2ccccc2)cc1` [N-(4-chlorophenethyl)-4-(phenylethynyl)benzamide], 177 nM; under `CC1CCCCN1C(=O)c1ccc(C(=O)Nc2ccc(F)cc2)cc1` (stereo not drawn) [N-(4-fluorophenyl)-4-(2-methylpiperidine-1-carbonyl)benzamide], 3330 nM. Same read-out and setting: under `CC1CCC(NC(=O)c2ccc(C#Cc3ccccc3)cc2)CC1` (stereo not drawn) [N-(4-methylcyclohexyl)-4-(phenylethynyl)benzamide] stands 76.3 nM. Regarding `O=C(NCC1CCCCC1)c1ccc(C#Cc2ccccc2)cc1` [N-(cyclohexylmethyl)-4-(phenylethynyl)benzamide], the EC50 under setting [1] came to 68.7 nM. `CCCCNC(=O)c1ccc(C#Cc2ccccc2)cc1` [N-butyl-4-(phenylethynyl)benzamide]: the EC50 under setting [1] amounted to 33.5 nM. Same read-out and setting: the value for `O=C(NC1CCCC1)c1ccc(C#Cc2ccccc2)cc1` [N-cyclopentyl-4-(phenylethynyl)benzamide] was 2.78 nM. Still for that read-out and setting: under `CC(C)CCNC(=O)c1ccc(C#Cc2ccccc2)cc1` [N-isopentyl-4-(phenylethynyl)benzamide] stands 27.3 nM; under `O=C(c1ccc(C#Cc2ccccc2)cc1)N1CCC(O)(c2ccc(F)cc2)CC1` [drawing 155, (4-(4-fluorophenyl)-4-hydroxypiperidin-1-yl)(4-(phenylethynyl)phenyl)methanone], 1250 nM.

For the origin of these results see patent publication US8853392B2, “Benzamide mGluR5 positive allosteric modulators and methods of making and using same” (Vanderbilt University, priority 2007, dated 2014).
